Source: patent US4678800A, “Gamma-r-glutamoyl derivatives” (Ciba-Geigy Corporation, priority 1984, dated 1987)

How the values were obtained:
[1] = tested on: angiotensin I converting enzyme; assay: inhibition of the angiotensin I pressor response in anesthetized normotensive rats; assay type: in vivo, rat; details: intravenous dose as low as 0.1 mg/kg
Method: The enzyme renin, normally causes specific hydrolysis of the circulating protein renin-substrate. This hydrolysis generates angiotensin I, which is further hydrolyzed by the action of said converting enzyme to the potent vasoconstrictor angiotensin II. The inhibition of said enzyme prevents the generation of angiotensin II from I and, therefore, attenuates any pressure response following an angiotensin I challenge.
The corresponding in vivo test is performed with male, normotensive rats, which are anesthetized with 100-120 mg/kg i.p. of sodium ethyl-(1-methylpropyl)-malonylthiourea. A femoral artery and saphenous vein are cannulated for direct blood pressure measurement and i.v. administration of angiotensin I and compounds of this invention. After the basal blood pressure is stabilized, pressor responses to 3 challenges of 0.33 μg/kg of angiotension I i.v. , in 5 minute intervals, are obtained. Such pressure responses are again obtained 5, 10, 15, 30 and 60 minutes after either i.v. or p.o. administration (stomach tube) of the compounds to be tested, and compared with the initial responses. Any observed decrease of said pressor response is an indication of angiotensin I converting enzyme inhibition, ranging up to 80% or greater after 10 mg/kg i.v., or lower doses, which decrease may be sustained up to 60 minutes.

[2] = tested on: spontaneous hypertensive rat; assay: in vivo lowering effect on blood pressure and heart rate in hypertensive rats; details: dose of 10 mg/kg p.o. or lower
Excerpt: This is demonstrable by in vivo or in vitro animal tests, using advantageously mammals, e.g., rats, cats, dogs or isolated organs thereof, as test objects. The animals may either be normotensive or hypertensive e.g., genetically hypertensive rats, or renal hypertensive rats and dogs, and sodium-depleted dogs. Said compounds can be applied to them enterally or parenterally, advantageously orally or intravenously, for example within gelatin capsules or in the form of starch suspensions or aqueous solutions, respectively. The applied dosage may range between about 0.01 and 50 mg/kg/day, preferably between about 0.1 and 25 mg/kg/day, advantageously between about 0.1 and 10 mg/kg/day.
The in vivo lowering effect on the blood pressure is recorded either directly by means of a catheter, for example placed in the dog's femoral artery, or indirectly by sphygmomanometry at the rat's tail, and a transducer, expressing the blood pressure prior and after dosing in mm Hg. Thus, for example, the representative members of the compounds of this invention, illustrated by the examples herein, are effective in hypertensive rats and at p.o. doses as low or lower than 10 mg/kg/day.

[3] = target: T1, angiotensin-converting enzyme isolated from lungs of adult male rabbits (Oryctolagus cuniculus, UniProt P12822); assay: in vitro inhibition of the angiotensin-converting enzyme (hippuryl-histidyl-leucine substrate); assay type: biochemical; details: rabbit lung enzyme, 37° for 30 minutes
T1 construct: angiotensin-converting enzyme isolated from lungs of adult male rabbits; from tissue; host or cells: lungs of adult male rabbits
T1 sequence (P12822 34-1310): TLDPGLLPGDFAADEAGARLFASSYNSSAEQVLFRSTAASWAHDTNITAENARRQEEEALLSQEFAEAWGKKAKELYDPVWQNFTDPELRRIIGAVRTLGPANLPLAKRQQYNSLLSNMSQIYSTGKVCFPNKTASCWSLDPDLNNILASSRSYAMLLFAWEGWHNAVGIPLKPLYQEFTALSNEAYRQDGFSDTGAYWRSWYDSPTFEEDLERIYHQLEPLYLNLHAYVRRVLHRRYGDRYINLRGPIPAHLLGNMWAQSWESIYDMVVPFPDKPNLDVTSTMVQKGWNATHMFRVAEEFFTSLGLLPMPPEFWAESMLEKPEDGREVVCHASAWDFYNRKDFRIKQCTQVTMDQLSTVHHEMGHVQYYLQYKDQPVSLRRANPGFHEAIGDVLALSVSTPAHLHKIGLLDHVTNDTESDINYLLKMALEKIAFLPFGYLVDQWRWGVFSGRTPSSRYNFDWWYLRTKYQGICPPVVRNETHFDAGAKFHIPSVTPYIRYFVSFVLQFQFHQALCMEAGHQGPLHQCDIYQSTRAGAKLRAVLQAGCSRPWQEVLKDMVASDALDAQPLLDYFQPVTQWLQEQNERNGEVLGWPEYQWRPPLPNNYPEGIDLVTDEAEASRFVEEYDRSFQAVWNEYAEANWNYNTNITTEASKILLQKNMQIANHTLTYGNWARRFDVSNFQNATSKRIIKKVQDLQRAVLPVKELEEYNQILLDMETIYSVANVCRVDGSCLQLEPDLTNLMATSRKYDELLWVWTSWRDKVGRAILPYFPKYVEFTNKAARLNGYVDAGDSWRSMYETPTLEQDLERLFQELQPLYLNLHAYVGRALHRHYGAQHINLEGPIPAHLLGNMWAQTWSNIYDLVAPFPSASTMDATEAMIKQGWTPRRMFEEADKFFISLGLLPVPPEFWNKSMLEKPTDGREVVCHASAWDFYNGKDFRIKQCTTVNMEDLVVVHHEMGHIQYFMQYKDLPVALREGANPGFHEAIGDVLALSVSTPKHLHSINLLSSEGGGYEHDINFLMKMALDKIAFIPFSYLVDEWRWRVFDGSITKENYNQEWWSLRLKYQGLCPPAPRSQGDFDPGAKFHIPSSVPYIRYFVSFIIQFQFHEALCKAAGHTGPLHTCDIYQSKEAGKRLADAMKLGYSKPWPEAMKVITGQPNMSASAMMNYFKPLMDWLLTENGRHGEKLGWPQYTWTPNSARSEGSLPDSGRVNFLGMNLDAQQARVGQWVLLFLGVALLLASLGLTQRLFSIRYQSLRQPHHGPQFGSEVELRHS
Method: Biophys. Acta 293, 451 (1973). According to this method, said compounds are dissolved at about 1 mM concentrations in phosphate buffer, externally cooled with ice. To these solutions various μl of histidyl-leucine in phosphate buffer are added, followed by 100 μl of 5 mM hippuryl-histidyl-leucine in phosphate buffer and 50 μl of the angiotensin-converting enzyme isolated from lungs of adult male rabbits, which is freshly prepared in Tris buffer containing potassium and magnesium chloride, as well as sucrose. Said solutions are incubated at 37° for 30 minutes and combined with 0.75 m- of 0.6 N aqueous sodium hydroxide to stop further reaction. Then 100 μl of o-phthalaldehyde are added at room temperature, and 10 minutes later 100 μl of 6N hydrochloric acid are also added. These samples are read against water in a spectrophotometer set at 360 nm, and the optical densities thereof estimated. They are corrected for the standard curve via a conversion factor expressing nanomoles of histidyl-leucine formed during said 30 minute incubation period. The results are plotted against drug concentration to determine the IC50, i.e., the drug concentration which gives half the activity of the control sample containing no drug. Again, said representative members of the compounds of this invention are very effective in this in vitro test system.

Compound | inhibition of the pressor response following angiotensin I challenge [1] | decrease of heart rate [2] | lowering of blood pressure [2] | IC50 [3] [nM]
O=C(N[C@H](CCC(=O)N1c2ccccc2C[C@H]1C(=O)O)C(=O)O)OCc1ccccc1 [Example 1, 1-(N-Benzyloxycarbonyl-γ-R-glutamyl)indoline-2-S-carboxylic acid] | about 70% | decrease the heart rate | lower blood pressure | ~7
O=C(N[C@H](CCC(=O)N1c2ccccc2C[C@H]1C(=O)O)C(=O)O)c1cccnc1 [Example 5, 1-(N-Nicotinoyl-γ-R-glutamyl)-indoline-2S-carboxylic acid] | – | decrease the heart rate | lower blood pressure | –
